Results reported in US20030082194A1, “Compositions and methods for diagnosis and therapy of malignant mesothelioma” (priority 2000, published 2003).

Key:
[1] = system: mouse B6 class I antigens (D^b or K^b molecules on RMA-S cells); assay: Peptide binding to C57Bl/6 murine MHC on RMA-S cells, flow cytometry (Tables 48, 49); type: cell-based
Method: In brief, RMA-S cells were cultured for 7 hrs at 26° C. in complete medium supplemented with 1% FCS. A total of […] RMA-S cells were added into each well of a 24-well plate and incubated either alone or with the designated peptide (25 μg/ml) for 16 hrs at 26° C. and additional 3 hrs at 37° C. in complete medium. Cells were then washed three times and stained with fluorescein isothiocyanate-conjugated anti Db or anti-Kb antibody (PharMingen, San Diego, CA). Labeled cells were washed twice, resuspended and fixed in 500 μl of PBS with 1% paraformaldehyde and analyzed for fluorescence intensity in a flow cytometer (Becton-Dickinson FACSCalibur®). The percentage of increase of D^b or K^b molecules on the surface of the RMA-S cells was measured by increased mean fluorescent intensity of cells incubated with peptide compared with that of cells incubated in medium alone.

[2] = system: T cells / spleen cells of immunized B6 mice; assay: Proliferative T cell response, thymidine incorporation assay after immunization of B6 mice with WT1 peptides; type: cell-based, mouse; settings: for stimulation index (SI), proliferative T cell response: B6 mice immunized with WT1 peptides, thymidine incorporation, FIG. 3
[3] = system: targets incubated with WT1 peptides (EL-4); assay: CTL chromium release assay, peptide-incubated targets; type: cell-based, mouse; settings: for generation of peptide specific CTL following immunization: mice immunized with peptide, spleen cells stimulated in vitro, chromium release; for lysis of targets incubated with the relevant peptide by peptide specific CTL: chromium release assay
Method: (§1) Following immunization, spleen cells were stimulated in vitro and tested for the ability to lyse targets incubated with WT1 peptides. CTL were evaluated with a standard chromium release assay (Chen et al., 1994). […] target cells were incubated at 37° C. with 150 μCi of sodium ^51Cr for 90 min., in the presence or absence of specific peptides. Cells were washed three times and resuspended in RPMI with 5% fetal bovine serum. For the assay, 10^4 51Cr-labeled target cells were incubated with different concentrations of effector cells in a final volume of 200 μl in U-bottomed 96-well plates. Supernatants were removed after 4-7 hrs at 37° C., and the percentage specific lysis was determined by the formula:
(§2) % Specific lysis=100×(experimental release−spontaneous release)/(maximum release-spontaneous release).
P117-139, a peptide with motifs appropriate for binding to class I and class II MHC, was identified as described above using TSITES and BIMAS HLA peptide binding prediction analyses. Mice were immunized as described in Example 3. Following immunization, spleen cells were stimulated in vitro and tested for the ability to lyse targets incubated with WT1 peptides, as well as WT1 positive and negative tumor cells. CTL were evaluated with a standard chromium release assay.
Following immunization, spleen cells were stimulated in vitro with each of the 4 peptides and tested for ability to lyse targets incubated with WT1 peptides.

[4] = system: WT1 positive tumor cell lines (TRAMP-C, BLK-SV40); assay: CTL chromium release assay, WT1 positive tumor cell lines; type: cell-based, mouse
Method: as §1, §2
P117-139, a peptide with motifs appropriate for binding to class I and class II MHC, was identified as described above using TSITES and BIMAS HLA peptide binding prediction analyses. Mice were immunized as described in Example 3. Following immunization, spleen cells were stimulated in vitro and tested for the ability to lyse targets incubated with WT1 peptides, as well as WT1 positive and negative tumor cells. CTL were evaluated with a standard chromium release assay. […]

[5] = biological target: Mouse B6 (C57Bl/6) MHC class I antigens on RMA-S cells (D^b or K^b) (mouse (C57Bl/6)); assay: RMA-S MHC stabilisation, peptide 25 ug/ml, FITC anti-Db or anti-Kb, flow cytometry (MFI increase over medium alone)
[6] = biological target: Mouse B6 (C57Bl/6) MHC class I antigens on RMA-S cells (D^b or K^b) (mouse (C57Bl/6)); assay: binding of 9-mer peptide to mouse B6 (H-2b) class I; RMA-S stabilisation assay as in Example 4
[7] = 9-mer peptides within p117-139, mouse B6 class I antigens, Table 49
[8] = peptide 25 μg/ml, percentage of increase of Db or Kb molecules (mean fluorescent intensity) vs medium alone, Table 48

P119-127 (QASSGQARM) [Peptide P119-127]
Binding Affinity to Mouse MHC Class I [1, 7]: 2%

RDLNALLPAVPSLGGGG (listed as Homo sapiens) [p6-22]
stimulation index (SI), proliferative T cell response [2]: 2.3 | proliferation of Vaccine A specific T cell line after single peptide in vitro stimulation ([2]; FIG. 5A, 5C): proliferation to p6-22 with no response to p117-139

P128-136 (FPNAPYLPS) [Peptide P128-136]
Binding Affinity to Mouse MHC Class I [1, 7]: 1%

GATLKGVAAGSSSSVKWTE (listed as Homo sapiens) [p244-262]
stimulation indices (SI), proliferative T cell responses to the immunizing peptides ([2]; Vaccine A, bulk lines, peptide 25 μg/ml, 96 hr, FIG. 4A): No proliferative response

ALLPAVPSL (listed as Homo sapiens) [SEQ ID NO:34]
generation of peptide specific CTL following immunization [3]: peptide specific CTL lines were generated | Binding Affinity to Mouse MHC Class I [1, 8]: 2.2%

P129-137 (PNAPYLPSC) [Peptide P129-137]
Binding Affinity to Mouse MHC Class I [1, 7]: 1%

VRRVSGVAPTLVRS (listed as Mus musculus) [P299-313]
stimulation index (SI), proliferative T cell response [2]: 3.3

P125-133 (ARMFPNAPY) [Peptide P125-133]
Binding Affinity to Mouse MHC Class I [1, 7]: 1%

P127-135 (MFPNAPYLP) [Peptide P127-135]
Binding Affinity to Mouse MHC Class I [1, 7]: 2%

P117-125 (PSQASSGQA) [Peptide P117-125]
Binding Affinity to Mouse MHC Class I [1, 7]: 2%

p221-229 (YSSDNLYQM)
Binding Affinity to Mouse MHC Class I [1, 8]: 0.8%

p329-337 (GCNKRYFKL)
Binding Affinity to Mouse MHC Class I [1, 8]: 1.2%

P120-128 (ASSGQARMF) [Peptide P120-128]
Binding Affinity to Mouse MHC Class I [1, 7]: 1%

P124-132 (QARMFPNAP) [Peptide P124-132]
Binding Affinity to Mouse MHC Class I [1, 7]: 1%

P121-129 (SSGQARMFP) [Peptide P121-129]
Binding Affinity to Mouse MHC Class I [1, 7]: 1%

SCLESQPAI (listed as Homo sapiens) [SEQ ID NO:198]
generation of peptide specific CTL following immunization [3]: peptide specific CTL lines were generated | Binding Affinity to Mouse MHC Class I [1, 8]: 52%

NLYQMTSQL (listed as Homo sapiens) [SEQ ID NO:147]
Binding Affinity to Mouse MHC Class I [1, 8]: 5.8%

p228-236 (QMTSQLECM)
Binding Affinity to Mouse MHC Class I [1, 8]: 1.2%

P118-126 (SQASSGQAR) [Peptide P118-126]
Binding Affinity to Mouse MHC Class I [1, 7]: 2%

NAPYLPSCL (listed as Homo sapiens) [SEQ ID NO:144]
lysis of targets incubated with 9-mer peptide by CTL generated by immunization with p117-139 ([3]; FIG. 10A): lysed | lysis of targets incubated with the relevant peptide by peptide specific CTL [3]: demonstrated peptide specific lysis | Binding Affinity to Mouse MHC Class I [1, 7]: 79% | binding to H-2b class I molecules / class I MHC molecules ([1]; peptide 25 μg/ml): shown to bind to H-2b class I molecules | lysis of WT1 positive tumor cells by peptide specific CTL [4]: showed lysis of a WT1 positive tumor cell line

CMTWNQMNL (listed as Homo sapiens, listed as Mus musculus) [SEQ ID NO:49]
lysis of targets incubated with the relevant peptide by peptide specific CTL [3]: lysed targets incubated with the p235-243 peptides | generation of peptide specific CTL following immunization ([3]; listed as p235-243): peptide specific CTL lines were generated | Binding Affinity to Mouse MHC Class I [1, 8]: 33.6% | lysis of WT1 positive tumor cells by peptide specific CTL [4]: failed to lyse cell lines that expressed WT1 proteins

P131-139 (APYLPSCLE) [Peptide P131-139]
Binding Affinity to Mouse MHC Class I [1, 7]: 1%

CMTWNQMNL [WT1 peptide p235-243 (…)]
Binding Affinity to Mouse MHC Class I (% increase of Db or Kb on RMA-S cells) [5]: 33.6%

SSGQARMFP [WT1 peptide P121-129 (…)]
Binding Affinity to Mouse MHC Class I (%) [6]: 1%

ALLPAVPSL [WT1 peptide human p10-18 (…)]
Binding Affinity to Mouse MHC Class I (% increase of Db or Kb on RMA-S cells) [5]: 2.2%

PSQASSGQA [WT1 peptide P117-125 (…)]
Binding Affinity to Mouse MHC Class I (%) [6]: 2%

QMTSQLECM [WT1 peptide p228-236 (…)]
Binding Affinity to Mouse MHC Class I (% increase of Db or Kb on RMA-S cells) [5]: 1.2%

PNAPYLPSC [WT1 peptide P129-137 (…)]
Binding Affinity to Mouse MHC Class I (%) [6]: 1%

YSSDNLYQM [WT1 peptide p221-229 (…)]
Binding Affinity to Mouse MHC Class I (% increase of Db or Kb on RMA-S cells) [5]: 0.8%

ASSGQARMF [WT1 peptide P120-128 (…)]
Binding Affinity to Mouse MHC Class I (%) [6]: 1%

APYLPSCLE [WT1 peptide P131-139 (…)]
Binding Affinity to Mouse MHC Class I (%) [6]: 1%

SQASSGQAR [WT1 peptide P118-126 (…)]
Binding Affinity to Mouse MHC Class I (%) [6]: 2%

SCLESQPAI [WT1 peptide human p136-144 (…)]
Binding Affinity to Mouse MHC Class I (% increase of Db or Kb on RMA-S cells) [5]: 52%

NLYQMTSQL [WT1 peptide p225-233 (…)]
Binding Affinity to Mouse MHC Class I (% increase of Db or Kb on RMA-S cells) [5]: 5.8%

QARMFPNAP [WT1 peptide P124-132 (…)]
Binding Affinity to Mouse MHC Class I (%) [6]: 1%

FPNAPYLPS [WT1 peptide P128-136 (…)]
Binding Affinity to Mouse MHC Class I (%) [6]: 1%

GCNKRYFKL [WT1 peptide p329-337 (…)]
Binding Affinity to Mouse MHC Class I (% increase of Db or Kb on RMA-S cells) [5]: 1.2%

MFPNAPYLP [WT1 peptide P127-135 (…)]
Binding Affinity to Mouse MHC Class I (%) [6]: 2%

QASSGQARM [WT1 peptide P119-127 (…)]
Binding Affinity to Mouse MHC Class I (%) [6]: 2%

NAPYLPSCL [WT1 peptide P130-138 (…)]
Binding Affinity to Mouse MHC Class I (%) [6]: 79%

ARMFPNAPY [WT1 peptide P125-133 (…)]
Binding Affinity to Mouse MHC Class I (%) [6]: 1%
